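Protocol summary: plate cells (96-well), add compound at 5 concentrations, incubate 48 h, interpolate endpoints linearly. The concentration for 50% growth inhibition is given as GI50. TGI marks complete inhibition of growth.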
Tests used:
Experiment in all cases: growth of human tumour cells (NCI), 48 h
[1] = tested on: A549 NSCLC
[2] = tested on: COLO 205 colon
[3] = tested on: NCI/ADR-RES ovarian
[4] = tested on: UO-31 renal
[5] = tested on: 786-0 renal
[6] = tested on: A498 renal
[7] = tested on: ACHN renal
[8] = tested on: CAKI-1 renal
[9] = tested on: CCRF-CEM leukemia
[10] = tested on: DU-145 prostate
[11] = tested on: HCC-2998 colon
[12] = tested on: HCT-116 colon
[13] = tested on: HCT-15 colon
[14] = tested on: HOP-62 NSCLC
[15] = tested on: HOP-92 NSCLC
[16] = tested on: HS 578T breast
[17] = tested on: IGROV1 ovarian
[18] = tested on: K-562 leukemia
[19] = tested on: KM12 colon
[20] = tested on: LOX IMVI melanoma
[21] = tested on: M14 melanoma
[22] = tested on: MALME-3M melanoma
[23] = tested on: MCF7 breast
[24] = tested on: MDA-MB-435
[25] = tested on: MOLT-4 leukemia
[26] = tested on: NCI-H226 lung
[27] = tested on: NCI-H23 lung
[28] = tested on: NCI-H460 lung
[29] = tested on: NCI-H522 lung
[30] = tested on: OVCAR-3 ovarian
[31] = tested on: OVCAR-4 ovarian
[32] = tested on: OVCAR-5 ovarian
[33] = tested on: OVCAR-8 ovarian
[34] = tested on: PC-3 prostate
[35] = tested on: RPMI-8226 leukemia
[36] = tested on: RXF 393 renal
[37] = tested on: SF-268 CNS
[38] = tested on: SF-295 CNS
[39] = tested on: SK-MEL-2 melanoma
[40] = tested on: SK-MEL-28 melanoma
[41] = tested on: SK-MEL-5 melanoma
[42] = tested on: SK-OV-3 ovarian
[43] = tested on: SN12C renal
[44] = tested on: SNB-19 CNS
[45] = tested on: SR leukemia
[46] = tested on: T-47D breast
[47] = tested on: TK-10 renal
[48] = tested on: U251 CNS
[49] = tested on: UACC-62 melanoma

Compound `Cc1cn2c(/C=N/N=C(N)N)c(-c3cc([N+](=O)[O-])c(Cl)cc3Cl)nc2s1` has a TGI [1] greater than 100 µM, a TGI [2] greater than 100 µM and a TGI [3] greater than 100 µM. It also gave a TGI [4] of 3.74 µM.

Compound `CNc1c2ccccc2nc2occ(Cl)c12` has a GI50 [5] of 34.6 µM, a TGI [5] greater than 100 µM and a GI50 [6] of 11.9 µM. For the same compound, the TGI [6] was 41.7 µM, the GI50 [1] was 31 µM and the TGI [1] was greater than 100 µM. For the same compound, the GI50 [7] was 24 µM, the TGI [7] was 70.5 µM and the GI50 [8] was 12 µM. For the same compound, the TGI [8] was 33.2 µM, the GI50 [9] was 27.1 µM and the TGI [9] was 84.5 µM. It also gave a GI50 [2] of 30.6 µM, a TGI [2] greater than 100 µM and a GI50 [10] of 41.5 µM. The TGI [10] was greater than 100 µM, the GI50 [11] was 36 µM and the TGI [11] was greater than 100 µM. It also gave a GI50 [12] of 17.1 µM, a TGI [12] of 40.5 µM and a GI50 [13] of 33.8 µM. For the same compound, the TGI [13] was greater than 100 µM, the GI50 [14] was 40.7 µM and the TGI [14] was greater than 100 µM. For the same compound, the GI50 [15] was 26.9 µM, the TGI [15] was greater than 100 µM and the GI50 [16] was 20.9 µM. For the same compound, the TGI [16] was 79.3 µM, the GI50 [17] was 50.5 µM and the TGI [17] was greater than 100 µM. For the same compound, the GI50 [18] was 26.4 µM, the TGI [18] was greater than 100 µM and the GI50 [19] was 32.6 µM. The TGI [19] was greater than 100 µM, the GI50 [20] was 25.5 µM and the TGI [20] was 75.2 µM. The GI50 [21] was 37.2 µM, the TGI [21] was greater than 100 µM and the GI50 [22] was 25.1 µM. The TGI [22] was 59.5 µM, the GI50 [23] was 32.3 µM and the TGI [23] was greater than 100 µM. For the same compound, the GI50 [24] was 17.2 µM, the TGI [24] was 79.9 µM and the GI50 [25] was 13.3 µM. For the same compound, the TGI [25] was 64.6 µM, the GI50 [26] was 32.9 µM and the TGI [26] was greater than 100 µM. It also gave a GI50 [27] of 40.9 µM, a TGI [27] greater than 100 µM and a GI50 [28] of 21.8 µM. The TGI [28] was 72.1 µM, the GI50 [29] was 80.3 µM and the TGI [29] was greater than 100 µM. For the same compound, the GI50 [3] was 30.1 µM, the TGI [3] was greater than 100 µM and the GI50 [30] was 24 µM. It also gave a TGI [30] of 75.2 µM, a GI50 [31] of 29.4 µM and a TGI [31] greater than 100 µM. It also gave a GI50 [32] of 47 µM, a TGI [32] greater than 100 µM and a GI50 [33] of 37.7 µM. For the same compound, the TGI [33] was greater than 100 µM, the GI50 [34] was 26.5 µM and the TGI [34] was greater than 100 µM. The GI50 [35] was 16 µM, the TGI [35] was 39.8 µM and the GI50 [36] was 19.7 µM. It also gave a TGI [36] of 50.8 µM, a GI50 [37] of 26.8 µM and a TGI [37] greater than 100 µM. It also gave a GI50 [38] of 20.6 µM, a TGI [38] of 88.2 µM and a GI50 [39] greater than 100 µM. The TGI [39] was greater than 100 µM, the GI50 [40] was 48.7 µM and the TGI [40] was greater than 100 µM. For the same compound, the GI50 [41] was 16.6 µM, the TGI [41] was 34.8 µM and the GI50 [42] was 36.8 µM. It also gave a TGI [42] greater than 100 µM, a GI50 [43] of 52.6 µM and a TGI [43] greater than 100 µM. For the same compound, the GI50 [44] was 51.6 µM, the TGI [44] was greater than 100 µM and the GI50 [45] was 18.3 µM. The TGI [45] was 50.6 µM, the GI50 [46] was 66.1 µM and the TGI [46] was greater than 100 µM. It also gave a GI50 [47] of 17.9 µM, a TGI [47] of 56.7 µM and a GI50 [48] of 31.4 µM. The TGI [48] was greater than 100 µM, the GI50 [49] was 33.3 µM and the TGI [49] was greater than 100 µM. For the same compound, the GI50 [4] was 31.3 µM and the TGI [4] was greater than 100 µM.
